Source: patent US20170152258A9, “Substituted Pyridopyrazines as Syk Inhibitors” (HUTCHISON MEDIPHARMA LIMITED, priority 2012, published 2017)
Several values for one entry are separate records, joined by “and”; a condition that tells them apart may be missing. Equal entries are not always repeated.

What was measured:
[1] = target: Syk kinase (Homo sapiens, UniProt P43405); assay: SYK Enzymatic Assay (Z-LYTE Tyr 2 peptide); type: biochemical; conditions: 8 concentrations 1 μM down to 0.0003 μM
Outline: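 Z-LYTE format using Tyr 2 peptide. After the 1 h room-temperature kinase reaction, development reagent was added for 1 h, then stop reagent. Fluorescence was read at 445 and 520 nm. Compounds were tested at 8 concentrations, 1 μM down to 0.0003 μM (1:3 dilutions).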

[2] = test system: RBL-2H3 cells; assay: IgE-induced Beta-hexosaminidase secretion in RBL-2H3 cells; type: cell-based; conditions: DNP-BSA stimulation
Outline: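 RBL-2H3 cells sensitized overnight with 0.5 ug/ml SPE-7 IgE, washed, preincubated with compound 20 min at 37° C, then stimulated with DNP-BSA (150 ng/mL stock) for 45 min. Released β-hexosaminidase measured on supernatant with 1 mM 4-nitrophenyl N-acetyl-β-D-glucosaminide, pH 4.5, 1.5 hr at 37° C; absorbance 405 nm after carbonate quench.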

[3] = Rattus norvegicus, RBL-2H3, IgE-induced Beta-hexosaminidase secretion
[4] = IgE-induced Beta-hexosaminidase secretion

## CC(=O)N1CCO[C@H](COc2nc(-c3ccc(N(C)C)c(Cl)c3)cc3nccnc23)C1 [Compound 140]
[1]
  IC50: 52 nM
[2]; [3]
  IC50: 31 nM

## CC(=O)N1CCO[C@H](COc2nc(-c3ccc(NC(C)C)cc3)cc3nccnc23)C1 [Compound 141]
[1]
  IC50: 98 nM
[2]; [3]
  IC50: 81 nM

## COc1ccc(-c2cc3nccnc3c(OC[C@@H]3CN(C(N)=O)CCO3)n2)cc1OC [Compound 142, (S)-2-(((7-(3,4-dimethoxyphenyl)pyrido[3,4-b]pyrazin-5-yl)oxy)methyl)morpholine-4-carboxamide]
[1]
  IC50: 68 nM
[2]; [3]
  IC50: 950 nM

## CNC(=O)N1CCO[C@H](COc2nc(-c3ccc(OC)c(OC)c3)cc3nccnc23)C1 [Compound 143]
[1]
  IC50: 80 nM
[2]; [3]
  IC50: 244 nM

## CC(=O)N1CCO[C@H](COc2nc(-c3ccc(N(C)C(C)C)cc3)cc3nccnc23)C1 [Compound 144, (S)-1-(2-(((7-(4-(isopropyl(methyl)amino)phenyl)pyrido[3,4-b]pyrazin-5-yl)oxy)methyl)morpholino)ethanone]
[1]
  IC50: 57 nM
[2]; [3]
  IC50: 80 nM

## CC(=O)N1CCO[C@H](COc2nc(-c3ccc4c(c3)OCCN4C)cc3nccnc23)C1 [Compound 148]
[1]
  IC50: 95 nM
[2]; [3]
  IC50: 137 nM

## c1cnc2c(O[C@@H]3CCOC3)nc(-c3ccc(N4CCOCC4)cc3)cc2n1 [Compound 149]
[1]
  IC50: 30 nM
[2]; [3]
  IC50: 60 nM

## COc1ccc(-c2cc3nccnc3c(O[C@@H]3CCOC3)n2)cc1OC [Compound 150]
[1]
  IC50: 92 nM
[2]; [3]
  IC50: 97 nM

## CCN(CC)c1ccc(-c2cc3nccnc3c(O[C@@H]3CCOC3)n2)cc1 [Compound 151]
[1]
  IC50: 44 nM
[2]; [3]
  IC50: 43 nM

## CC(=O)N1CCN(c2ccc(-c3cc4nccnc4c(O[C@@H]4CCOC4)n3)cc2)CC1 [Compound 152]
[1]
  IC50: 33 nM
[2]; [3]
  IC50: 48 nM

## CS(=O)(=O)N1CCN(c2ccc(-c3cc4nccnc4c(O[C@@H]4CCOC4)n3)cc2)CC1 [Compound 153]
[1]
  IC50: 33 nM
[2]; [3]
  IC50: 26 nM

## CN(C)c1ccc(-c2cc3nccnc3c(O[C@@H]3CCOC3)n2)cc1Cl [Compound 154]
[1]
  IC50: 43 nM
[2]; [3]
  IC50: 78 nM

## Cc1cc(-c2cc3nccnc3c(O[C@@H]3CCOC3)n2)ccc1N(C)C [Compound 155]
[1]
  IC50: 32 nM
[2]; [3]
  IC50: 29 nM

## CC(=O)N1CCC(c2ccc(-c3cc4nccnc4c(O[C@@H]4CCOC4)n3)cc2)CC1 [Compound 156]
[1]
  IC50: 38 nM
[2]; [3]
  IC50: 32 nM

## CC(=O)N1CCO[C@H](COc2nc(-c3ccc(N(C)C)c(C)c3)cc3nccnc23)C1 [Compound 158]
[1]
  IC50: 30 nM
[2]; [3]
  IC50: 32 nM

## CC(=O)N1CCO[C@H](COc2nc(-c3cc(C)c(N(C)C)c(C)c3)cc3nccnc23)C1 [Compound 161]
[1]
  IC50: 151 nM
[2]; [3]
  IC50: 108 nM

## Cc1cc(-c2cc3nccnc3c(OC[C@@H]3CN(C(N)=O)CCO3)n2)ccc1N(C)C [Compound 163]
[1]
  IC50: 36 nM
[2]; [3]
  IC50: 53 nM

## CNC(=O)N1CCO[C@H](COc2nc(-c3ccc(N(C)C)c(C)c3)cc3nccnc23)C1 [Compound 164]
[1]
  IC50: 66 nM
[2]; [3]
  IC50: 82 nM

## CN(C)c1ccc(-c2cc3nccnc3c(OC[C@@H]3CN(C(N)=O)CCO3)n2)cc1Cl [Compound 165]
[1]
  IC50: 48 nM
[2]; [3]
  IC50: 95 nM

## CNC(=O)N1CCO[C@H](COc2nc(-c3ccc(N(C)C)c(Cl)c3)cc3nccnc23)C1 [Compound 166]
[1]
  IC50: 52 nM
[2]; [3]
  IC50: 71 nM

## CN(C)c1ccc(-c2cc3nccnc3c(OC[C@@H]3CN(C(=O)C(C)(F)F)CCO3)n2)cc1 [Compound 172]
[1]
  IC50: 50 nM
[2]; [3]
  IC50: 55 nM

## CN(C)c1ccc(-c2cc3nccnc3c(OC[C@@H]3CN(C(=O)CO)CCO3)n2)cc1 [Compound 173]
[1]
  IC50: 32 nM
[2]; [3]
  IC50: 54 nM

## CC(C)c1ccc(-c2cc3nccnc3c(OC[C@@H]3CN(C(N)=O)CCO3)n2)cc1 [Compound 175]
[1]
  IC50: 55 nM
[2]; [3]
  IC50: 69 nM

## CNC(=O)N1CCO[C@H](COc2nc(-c3ccc(C(C)C)cc3)cc3nccnc23)C1 [Compound 176]
[1]
  IC50: 59 nM
[2]; [3]
  IC50: 67 nM

## CC(=O)N1CCN(c2ccc(-c3cc4nccnc4c(O[C@@H]4CCCOC4)n3)cc2)CC1 [Compound 177]
[1]
  IC50: 91 nM
[2]; [3]
  IC50: 79 nM

## CN(C)c1ccc(-c2cc3nccnc3c(OC[C@@H]3CN(S(N)(=O)=O)CCO3)n2)cc1 [Compound 178]
[1]
  IC50: 19 nM
[2]; [3]
  IC50: 63 nM

## CC(C)c1ccc(-c2cc3nccnc3c(OC[C@@H]3CN(S(C)(=O)=O)CCO3)n2)cc1 [Compound 181]
[1]
  IC50: 91 nM and 68 nM
[2]; [4]
  IC50: 69 nM
[2]; [3]
  IC50: 57 nM

## CN(C)c1ccc(-c2cc3nccnc3c(OC[C@@H]3CN(C(N)=O)CCO3)n2)cc1F [Compound 183]
[1]
  IC50: 76 nM
[2]; [3]
  IC50: 95 nM

## CNC(=O)N1CCO[C@H](COc2nc(-c3ccc(N(C)C)c(F)c3)cc3nccnc23)C1 [Compound 184]
[1]
  IC50: 84 nM
[2]; [3]
  IC50: 62 nM

## CC(=O)N1CCO[C@H](COc2nc(-c3ccc4c(c3)CCCN4C)cc3nccnc23)C1 [Compound 185]
[1]
  IC50: 40 nM
[2]; [3]
  IC50: 64 nM

## CC(=O)N1CCO[C@H](COc2nc(-c3ccc(N4CCN(C)CC4)c(C)c3)cc3nccnc23)C1 [Compound 186]
[1]
  IC50: 81 nM
[2]; [3]
  IC50: 114 nM

## Cc1cc(-c2cc3nccnc3c(OC[C@@H]3CN(S(N)(=O)=O)CCO3)n2)ccc1N(C)C [Compound 188]
[1]
  IC50: 11 nM
[2]; [3]
  IC50: 39 nM

## CC(=O)N1CCO[C@H](COc2nc(-c3ccc4c(c3)CCN4C)cc3nccnc23)C1 [Compound 189]
[1]
  IC50: 61 nM
[2]; [3]
  IC50: 78 nM

## c1cnc2c(O[C@@H]3CCOC3)nc(-c3ccc(C4CCNCC4)cc3)cc2n1 [Compound 190]
[1]
  IC50: 50 nM
[2]; [3]
  IC50: 645 nM

## Cc1cc(-c2cc3nccnc3c(O[C@@H]3CCOC3)n2)ccc1N1CCOCC1 [Compound 192]
[1]
  IC50: 30 nM
[2]; [3]
  IC50: 49 nM

## Fc1cc(-c2cc3nccnc3c(O[C@@H]3CCOC3)n2)ccc1N1CCOCC1 [Compound 193]
[1]
  IC50: 66 nM
[2]; [3]
  IC50: 143 nM

## CC(C)c1ccc(-c2cc3nccnc3c(OC[C@@H]3CN(C(=O)CO)CCO3)n2)cc1 [Compound 195]
[1]
  IC50: 63 nM
[2]; [3]
  IC50: 129 nM

## C[C@@H](O)C(=O)N1CCO[C@H](COc2nc(-c3ccc(N(C)C)cc3)cc3nccnc23)C1 [Compound 196]
[1]
  IC50: 67 nM
[2]; [3]
  IC50: 128 nM

## C[C@H](O)C(=O)N1CCO[C@H](COc2nc(-c3ccc(N(C)C)cc3)cc3nccnc23)C1 [Compound 197]
[1]
  IC50: 85 nM
[2]; [3]
  IC50: 81 nM

## CCC(=O)N1CCO[C@H](COc2nc(-c3ccc(N(C)C)cc3)cc3nccnc23)C1 [Compound 198]
[1]
  IC50: 40 nM
[2]; [3]
  IC50: 86 nM

## CN(C)c1ccc(-c2cc3nccnc3c(OC[C@@H]3CN(C(=O)N4CCC4)CCO3)n2)cc1 [Compound 199, (S)-azetidin-1-yl(2-(((7-(4-(dimethylamino)phenyl)pyrido[3,4-b]pyrazin-5-yl)oxy)methyl)morpholino)methanone]
[1]
  IC50: 88 nM
[2]; [3]
  IC50: 211 nM

## Cc1cc(-c2cc3nccnc3c(OC[C@@H]3CN(C(=O)[C@@H](C)O)CCO3)n2)ccc1N(C)C [Compound 200]
[1]
  IC50: 51 nM
[2]; [3]
  IC50: 133 nM

## Cc1cc(-c2cc3nccnc3c(OC[C@@H]3CN(C(=O)[C@H](C)O)CCO3)n2)ccc1N(C)C [Compound 201]
[1]
  IC50: 49 nM
[2]; [3]
  IC50: 100 nM

## CCC(=O)N1CCO[C@H](COc2nc(-c3ccc(N(C)C)c(C)c3)cc3nccnc23)C1 [Compound 202]
[1]
  IC50: 26 nM
[2]; [3]
  IC50: 90 nM

## CS(=O)(=O)N1CCO[C@H](COc2nc(-c3ccc4[nH]ncc4c3)cc3nccnc23)C1 [Compound 203]
[1]
  IC50: 60 nM
[2]; [3]
  IC50: 107 nM

## CC(=O)N1CCN(c2ccc(-c3cc4nccnc4c(O[C@@H]4CCOC4)n3)cc2C)CC1 [Compound 205]
[1]
  IC50: 27 nM
[2]; [3]
  IC50: 19 nM

## CN(C)c1ccc(-c2cc3nccnc3c(OC[C@@H]3CNC(=O)C3)n2)cc1 [Compound 206, (S)-4-(((7-(4-(dimethylamino)phenyl)pyrido[3,4-b]pyrazin-5-yl)oxy)methyl)pyrrolidin-2-one]
[1]
  IC50: 72 nM
[2]; [3]
  IC50: 52 nM

## CN1CCCc2cc(-c3cc4nccnc4c(OC[C@@H]4CN(S(C)(=O)=O)CCO4)n3)ccc21 [Compound 207]
[1]
  IC50: 11 nM
[2]; [4]
  IC50: 14 nM
[2]; [3]
  IC50: 8 nM

## CN1CCCc2cc(-c3cc4nccnc4c(OC[C@@H]4CN(S(N)(=O)=O)CCO4)n3)ccc21 [Compound 208]
[1]
  IC50: 13 nM
[2]; [3]
  IC50: 20 nM

## CN1CCCc2cc(-c3cc4nccnc4c(OC[C@@H]4CN(C(N)=O)CCO4)n3)ccc21 [Compound 209]
[1]
  IC50: 17 nM
[2]; [3]
  IC50: 57 nM

## Cc1cc(-c2cc3nccnc3c(O[C@@H]3CCOC3)n2)ccc1N1CCN(S(C)(=O)=O)CC1 [Compound 210]
[1]
  IC50: 30 nM
[2]; [3]
  IC50: 32 nM

## CNS(=O)(=O)N1CCO[C@H](COc2nc(-c3ccc(N(C)C)cc3)cc3nccnc23)C1 [Compound 211]
[1]
  IC50: 58 nM
[2]; [3]
  IC50: 78 nM

## CC(C)(C#N)c1ccc(-c2cc3nccnc3c(OC[C@@H]3CN(S(C)(=O)=O)CCO3)n2)cc1 [Compound 212]
[1]
  IC50: 17 nM
[2]; [3]
  IC50: 30 nM

## CC(O)c1ccc(-c2cc3nccnc3c(OC[C@@H]3CN(S(C)(=O)=O)CCO3)n2)cc1 (stereo partly drawn) [Compound 213, 1-(4-(5-(((S)-4-(methylsulfonyl)morpholin-2-yl)methoxy)pyrido[3,4-b]pyrazin-7-yl)phenyl)ethanol]
[1]
  IC50: 57 nM
[2]; [3]
  IC50: 71 nM

## CN1CCc2cc(-c3cc4nccnc4c(OC[C@@H]4CN(S(C)(=O)=O)CCO4)n3)ccc21 [Compound 214]
[1]
  IC50: 16 nM
[2]; [3]
  IC50: 20 nM

## CN1CCc2cc(-c3cc4nccnc4c(OC[C@@H]4CN(S(N)(=O)=O)CCO4)n3)ccc21 [Compound 215]
[1]
  IC50: 19 nM
[2]; [3]
  IC50: 40 nM
